Target: T1, Recombinant CETP enzyme (Homo sapiens, UniProt P11597)
T1 construct: purchased Cardiovascular Targets
T1 sequence (P11597 18-493): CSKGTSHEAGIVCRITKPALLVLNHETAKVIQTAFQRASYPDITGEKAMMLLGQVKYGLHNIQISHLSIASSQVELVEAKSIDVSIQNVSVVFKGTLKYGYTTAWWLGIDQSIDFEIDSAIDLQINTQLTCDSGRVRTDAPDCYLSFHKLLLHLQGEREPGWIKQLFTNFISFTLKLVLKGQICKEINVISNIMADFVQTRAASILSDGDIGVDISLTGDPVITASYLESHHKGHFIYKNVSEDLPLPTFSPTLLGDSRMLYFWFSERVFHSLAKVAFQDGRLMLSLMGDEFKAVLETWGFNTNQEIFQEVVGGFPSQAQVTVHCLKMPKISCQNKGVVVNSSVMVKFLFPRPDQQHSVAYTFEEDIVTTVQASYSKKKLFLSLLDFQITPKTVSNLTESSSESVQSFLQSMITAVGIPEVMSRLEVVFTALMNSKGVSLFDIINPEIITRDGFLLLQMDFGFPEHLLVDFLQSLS
Experiment: In vitro fluorescence-based CETP inhibition assay (BODIPY-CE transfer from donor to acceptor microemulsions)
Format: biochemical
Settings: recombinant CETP 0.14 ng/μl; transfer of fluorescent cholesteryl ester monitored over 2 hours; vs DMSO controls
Procedure: An in vitro fluorescence-based assay to identify CETP inhibitors was developed from modifications of the protocols outlined in Bisgaier et al., J Lipid Res., 34(9): 1625-34 (1993) and Epps et al., Chem Phys Lipids., 77(1): 51-63 (1995). Acceptor and donor lipid microemulsions were prepared according to Bisgaier et al., 1993, except that the buffer was prepared with 0.67 ug/mL human HDL (Calbiochem). Donor microemulsions contained the fluorescent cholesteryl ester analog BODIPY-CE (Molecular Probes), characterized by excitation and emission maxima at 503 nm and 518 nm, respectively. The CETP-mediated transfer of fluorescent cholesteryl ester to acceptor particles was monitored over a 2-hour time period using the FAM filter set (excitation 492 nm, emission 516 nm) in an MX3000P fluorescent plate reader (Stratagene). Recombinant CETP enzyme (Cardiovascular Targets) was used at 0.14 ng/μl, final concentration, to achieve lipid transfer. CETP inhibition by compounds was compared to DMSO controlsand graphed as a percentage of the control CETP activity over 2 hours. The IC50 curves for CETP inhibition were generated from the activity profiles. Active compounds were also tested for CETP inhibition as above, but in the presence of 3% human serum albumin, fraction V (Calbiochem).

Row | SMILES | IC50
1 | Cc1nn(C)c2nc(N(CC3CC3)CC3CC3)c(CN(Cc3cc(C(F)(F)F)cc(C(F)(F)F)c3)c3nnn(C)n3)cc12 [Example 2, (5-{[(3,5-bis-trifluoromethyl-benzyl)-(2-methyl-2H-tetrazole-5-yl)-amino]-methyl}-1,3-dimethyl-1H-pyrazolo[3,4-b]pyridin-6-yl)-bis-cyclopropylmethyl-amine] | ≤ 1000 nM
2 | CCN(c1nc2c(cc1CN(Cc1cc(C(F)(F)F)cc(C(F)(F)F)c1)c1nnn(C)n1)c(C)nn2C)C(C)C [Example 7, (5-{[(3,5-bis-trifluoromethyl-benzyl)-(2-methyl-2H-tetrazole-5-yl)-amino]-methyl}-1,3-dimethyl-1H-pyrazolo[3,4-b]pyridin-6-yl)-ethyl-isopropyl-amine] | ≤ 1000 nM
3 | CCN(CC1CCC1)c1nc2c(cc1CN(Cc1cc(C(F)(F)F)cc(C(F)(F)F)c1)c1cc(C)on1)c(C)nn2C [Example 10, (5-{[(3,5-bis-trifluoromethyl-benzyl)-(5-methyl-isoxazol-3-yl)-amino]-methyl}-1,3-dimethyl-1H-pyrazolo[3,4-b]pyridin-6-yl)-cyclobutylmethyl-ethyl-amine] | ≤ 1000 nM
4 | Cc1cc(N(Cc2cc(C(F)(F)F)cc(C(F)(F)F)c2)Cc2cc3c(C)nn(C)c3nc2N(CC2CC2)CC2CC2)no1 [Example 11, (5-{[(3,5-bis-trifluoromethyl-benzyl)-(5-methyl-isoxazol-3-yl)-amino]-methyl}-1,3-dimethyl-1H-pyrazolo[3,4-b]pyridin-6-yl)-bis-cyclopropylmethyl-amine] | ≤ 1000 nM
5 | CCN(CC1CCC1)c1nc2c(cnn2C)cc1CN(Cc1cc(C(F)(F)F)cc(C(F)(F)F)c1)c1nnn(C)n1 [Example 12, (5-{[(3,5-bis-trifluoromethyl-benzyl)-(2-methyl-2H-tetrazol-5-yl)-amino]-methyl}-1-methyl-1H-pyrazolo[3,4-b]pyridin-6-yl)-cyclobutylmethyl-ethyl-amine] | ≤ 1000 nM
6 | CCN(CC1CCCC1)c1nc2c(cc1CN(Cc1cc(Cl)cc(Cl)c1)c1nnn(C)n1)c(C)nn2C [Example 19, cyclopentylmethyl-(1,3-dimethyl-5-{[(2-methyl-2H-tetrazol-5-yl)-(3,5-dichlorobenzyl)-amino]-methyl}-1H-pyrazolo[3,4-b]pyridin-6-yl)-ethyl-amine] | ≤ 1000 nM
7 | Cc1nn(C)c2nc(N(CC3CC3)CC3CC3)c(CN(Cc3cc(Cl)cc(Cl)c3)c3nnn(C)n3)cc12 [Example 21, bis-cyclopropylmethyl-(5-{[(3,5-dichlorobenzyl)-(2-methyl-2H-tetrazol-5-yl)-amino]-methyl}-1,3-dimethyl-1H-pyrazolo[3,4-b]pyridin-6-yl)-amine] | ≤ 1000 nM
8 | CCN(CC1CCCC1)c1nc2c(cc1CN(Cc1cc(C(F)(F)F)cc(C(F)(F)F)c1)c1nnn(C)n1)c(C)nn2C [Example 24, (5-{[(3,5-bis-trifluoromethyl-benzyl)-(2-methyl-2H-tetrazol-5-yl)-amino]-methyl}-1,3-dimethyl-1H-pyrazolo[3,4-b]pyridin-6-yl)-cyclopentylmethyl-ethyl-amine] | ≤ 1000 nM
9 | CCN(CC1CCCC1)c1nc2onc(C)c2cc1CN(Cc1cc(C(F)(F)F)cc(C(F)(F)F)c1)C(=O)OC [Example 32, (3,5-bis-trifluoromethyl-benzyl)-[6-(cyclopentylmethyl-ethyl-amino)-3-methyl-isoxazolo[5,4-b]pyridine-5-ylmethyl}-carbamic acid methyl ester] | ≤ 1000 nM
10 | CCN(CC1CCCC1)c1nc2ccccc2cc1CN(Cc1cc(C(F)(F)F)cc(C(F)(F)F)c1)C(=O)OC [Example 35, (3,5-bis-trifluoromethyl-benzyl)-[2-(cyclopentylmethyl-ethyl-amino)-quinolin-3-ylmethyl]-carbamic acid methyl ester] | ≤ 5000 nM

Results, then the molecule that gave them:

Row | IC50 | SMILES
11 | ≤ 1000 nM | CCN(CC1CCC1)c1nc2c(cc1CN(Cc1cc(C(F)(F)F)cc(C(F)(F)F)c1)c1nnn(C)n1)c(C)nn2C [Example 1, (5-{[(3,5-bis-trifluoromethyl-benzyl)-(2-methyl-2H-tetrazole-5-yl)-amino]-methyl}-1,3-dimethyl-1H-pyrazolo[3,4-b]pyridin-6-yl)-cyclobutylmethyl-ethyl-amine]
12 | ≤ 1000 nM | CCN(CC1CC1)c1nc2c(cc1CN(Cc1cc(C(F)(F)F)cc(C(F)(F)F)c1)c1nnn(C)n1)c(C)nn2C [Example 3, (5-{[(3,5-bis-trifluoromethyl-benzyl)-(2-methyl-2H-tetrazole-5-yl)-amino]-methyl}-1,3-dimethyl-1H-pyrazolo[3,4-b]pyridin-6-yl)-cyclopropylmethyl-ethyl-amine]
13 | ≤ 1000 nM | Cc1nn(C)c2nc(N(C)CC3CCC3)c(CN(Cc3cc(C(F)(F)F)cc(C(F)(F)F)c3)c3nnn(C)n3)cc12 [Example 4, (5-{[(3,5-bis-trifluoromethyl-benzyl)-(2-methyl-2H-tetrazole-5-yl)-amino]-methyl}-1,3-dimethyl-1H-pyrazolo[3,4-b]pyridin-6-yl)-cyclobutylmethyl-methyl-amine]
14 | ≤ 1000 nM | Cn1nnc(N(Cc2cc(C(F)(F)F)cc(C(F)(F)F)c2)Cc2cc3cnn(C)c3nc2N(CC2CC2)CC2CC2)n1 [Example 13, (5-{[(3,5-bis-trifluoromethyl-benzyl)-(2-methyl-2H-tetrazol-5-yl)-amino]-methyl}-1-methyl-1H-pyrazolo[3,4-b]pyridin-6-yl)-bis-cyclopropylmethyl-amine]
15 | ≤ 1000 nM | CCn1ncc2cc(CN(Cc3cc(C(F)(F)F)cc(C(F)(F)F)c3)c3nnn(C)n3)c(N(CC3CC3)CC3CC3)nc21 [Example 14, (5-{[(3,5-bis-trifluoromethyl-benzyl)-(2-methyl-2H-tetrazol-5-yl)-amino]-methyl}-1-ethyl-1H-pyrazolo[3,4-b]pyridin-6-yl)-bis-cyclopropylmethyl-amine]
16 | ≤ 1000 nM | CCN(CC1CCCC1)c1nc2c(cc1CN(Cc1cc(F)cc(F)c1)c1nnn(C)n1)c(C)nn2C [Example 18, cyclopentylmethyl-ethyl-(5-{[(3,5-difluoro-benzyl)-(2-methyl-2H-tetrazol-5-yl)-amino]-methyl}-1,3-dimethyl-1H-pyrazolo[3,4-b]pyridine-6-yl)-amine]
17 | ≤ 1000 nM | CCN(CC1CCCC1)c1nc2c(cc1CN(Cc1cc(F)cc(C(F)(F)F)c1)c1nnn(C)n1)c(C)nn2C [Example 20, cyclopentylmethyl-ethyl-(5-{[(3-fluoro-5-trifluoromethyl-benzyl)-(2-methyl-2H-tetrazol-5-yl)-amino]-methyl}-1,3-dimethyl-1H-pyrazolo[3,4-b]pyridin-6-yl)-amine]
18 | ≤ 1000 nM | Cc1nn(C)c2nc(N(CC3CC3)C(=O)C3CC3)c(CN(Cc3cc(C(F)(F)F)cc(C(F)(F)F)c3)c3nnn(C)n3)cc12 [Example 27, cyclopropanecarboxylic acid (5-{[(3,5-bis-trifluoromethyl-benzyl)-(2-methyl-2H-tetrazol-5-yl)-amino]-methyl}-1,3-dimethyl-1H-pyrazolo[3,4-b]pyridin-6-yl)-cyclopropylmethyl-amide]
19 | ≤ 1000 nM | CCN(CC1CCCC1)c1nc2onc(C)c2cc1CN(Cc1cc(C(F)(F)F)cc(C(F)(F)F)c1)c1nnn(C)n1 [Example 33, (5-{[(3,5-bis-trifluoromethyl-benzyl)-(2-methyl-2H-tetrazol-5-yl)-amino]-methyl}-3-methyl-isoxazolo[5,4-b]pyridine-6-yl)-cyclopentylmethyl-ethyl-amine]

Source: patent US8604055B2, “Substituted benzylamino quinolines as cholesterol ester-transfer protein inhibitors” (Dr. Reddy's Laboratories Ltd., priority 2004, dated 2013)
